Values quoted from earlier work as cited in US8153594B2, “Tacrolimus standard and methods of using same” (Siemens Healthcare Diagnostics Inc., priority 2006, dated 2012).

Solubility in water: insoluble in water
Compound: C=CC[C@@H]1/C=C(\C)C[C@H](C)C[C@H](OC)[C@H]2O[C@@](O)(C(=O)C(=O)N3CCCC[C@H]3C(=O)O[C@H](/C(C)=C/[C@@H]3CC[C@@H](O)[C@H](OC)C3)[C@H](C)[C@@H](O)CC1=O)[C@H](C)C[C@@H]2OC [tacrolimus, Tacrolimus]
